Assay [1] concerns clinical isolates of Klebsiella pneumonia (Klebs). Briefly: Broth microdilution in Klebs clinical isolates. The conditions noted are these: Klebsiella pneumoniae, LB broth, read-out: IC50. The assay is classed as cell-based. The text has this:
(§1) Bacterial culture reagents including LB broth (Lennox), agar-agar, ampicillin, and ceftriaxone were purchased from Sigma Aldrich Corp. The Escherichia coli (E. coli) K12 strain HB101 and pGLO E. coli transformation kit purchased from Bio-Rad Laboratories Inc. HB101 was transformed with the bla gene via the pGLO plasmid. The bla gene encodes for a TEM-1 β-lactamase that imparts penicillin resistance to the mutant E. coli K-12 strain (+Bla). Strains E. coli UTI89, [27] pCOM-GFP-transformed E. coli UTI89 (pCOM-GFP), [28] and Methicillin-Resistant Staphylococcus aureus (MRSA) clone USA300 [29] have been previously described. The Extended-Spectrum β-Lactamase (ESBL) E. coli, Klebsiella pneumonia (Klebs), and Pseudomonas aeruginosa (Pseudo) strains were clinical isolates acquired deidentified from Duke Hospital and tested for antibiotic susceptibility in the Clinical Microbiology Laboratory using standard clinical susceptibility methods.
(§2) Cultures were incubated on LB (Lennox, Sigma) agar at 37° C. in ambient atmospheric composition. Before beginning an experiment, a single bacterial colony grown on LB agar was resuspended in 2 mL LB broth and incubated overnight to form a turbid cell suspension. The overnight culture was diluted 1:100 in LB and used immediately as the working culture. To assess the antibacterial activity of compounds, the working bacterial culture was aliquoted in a clear, flat-bottomed, 96-well polystyrene plate (Costar) and the compound of interest was added in 2-fold serial dilution from 500 to 1 μM. Plates were covered with a breathable sealing film (Aeroseal, Genesee Scientific) and incubated at 37° C. in ambient atmospheric composition with shaking at 200 rpm. Optical density at 600 nm was recorded after 4 h and 20 h for each well using a standard OD600 protocol with LB serving as the blank. The resulting dose-response curves were fit to a nonlinear regression in GraphPad Prism Version 6 to calculate the IC50 of DB4-51 in each strain.
In general terms: Broth dilution looks for growth in wells or tubes with falling amounts of substance.

Assay [2] deals with susceptible E. coli HB101 K-12 (no β-lactamase). Kind of assay: Broth microdilution (preliminary, Table 1), susceptible K-12. The assay is classed as cell-based, Escherichia coli. The note with it: Escherichia coli; Susceptable K-12 E. coli; LB; OD600; preliminary results. Here is the method:
(§3) In order to determine the antibiotic activity of DB4-51, a debilitated strain of Escherichia coli (HB101 K-12) was transformed with the pGLO plasmid from Bio-Rad in order to express β-lactamase. This transformation was confirmed by growing on a selective medium containing 100 μg/ml ampicillin in Lennox LB with 1.5% agar. A broth microdilution assay was employed to determine the relative activity of DB4-51 against susceptible (HB 101 K-12, no β-lactamase) and resistant (HB 101 K-12 transformed to express β-lactamase) E. coli. Using Lennox LB as the medium. serial dilutions of the test compounds were performed in a 96-well plate and then inoculated with E. coli before incubating for 16-20 hours at 35° C. The bacterial growth was monitored by recording each well's absorbance at 600 nm (OD600.) The OD600 values of E. coli suspensions incubated with various compounds were compared in order to assess their activities.
FIG. 7: OD600 of susceptible and resistant K-12 E. coli cultures against DB4-51 and known antibiotics as a function of concentration. Ampicillin has a penicillin core and cephalexin has a cephalosporin core. Cultures were grown in LB broth at 37° C. while shaking at 200 rpm for 18 hours and then diluted to an OD600 of 0.005 before adding the compounds. Plates were grown at 35° C. while shaking at 200 rpm and the OD600 was recorded after 18 hours.
(§4) Table 1: Calculated IC50 values for DB4-51, cephalexin, ampicillin, and pyrithione. These values were derived by fitting the data to a log dose-response curve and reporting the concentration corresponding to half the maximum OD600 value for each compound.

Assay [3] concerns resistant E. coli HB101 K-12 transformed to express β-lactamase. Briefly: microbe, parasite or virus in culture. The assay is classed as cell-based, Escherichia coli. The conditions noted are these: Escherichia coli. As for the experimental part:
as §3, with “Using Lennox LB as the medium. serial dilutions of the test compounds were performed in a 96-well plate and then inoculated with E. coli before incubating for 16-20 hours at 35° C.” left out
FIG. 7: OD600 of susceptible and resistant K-12 E. coli cultures against DB4-51 and known antibiotics as a function of concentration. Ampicillin has a penicillin core and cephalexin has a cephalosporin core. Cultures were grown in LB broth at 37° C. while shaking at 200 rpm for 18 hours and then diluted to an OD600 of 0.005 before adding the compounds. […]
as §4

Another assay relates to +Bla K-12 E. coli. Briefly: microbe, parasite or virus in culture. The assay is classed as cell-based, Escherichia coli. The note with it: for IC50: Escherichia coli, +Bla K-12 E. coli.
From the text: as §1, §2
(§5) The ability of DB4-162 to inhibit bacterial growth was assessed by a traditional broth microdilution method that assesses the turbidity of liquid cultures in the presence of varying concentrations of the compound. As described above for DB4-51, the antibacterial properties of the prochelator DB4-162 were assessed in non-pathogenic lab-strain HB101K-12 E. coli and compared to the pGLO-transfected mutant HB101K-12 E. coli that express β-lactamase. Clinically relevant pathogenic bacteria were also screened, including UTI89 E. coli, pCOM transfected UTI89 E. coli (pCOM), extended spectrum β-lactamase (ESBL) E. coli, methicillin-resistant Staphylococcus aureus (MRSA), and Klebsiella pneumonia (Klebs). In addition to being naturally resistant to many β-lactam antibiotics, MRSA can produce a number of β-lactamases. […] It should be noted that all of the bacteria tested are gram-negative except for gram-positive MRSA.
(§6) The goal of this screen was to calculate the IC50 of the prochelator in a series of pathogenic bacteria and compare these values to the IC50 of known antibiotics in those same strains to determine the relative effectiveness of DB4-162 against the drug-resistant and drug-susceptible bacteria in comparison to current antibiotic treatment options. Bacterial growth was monitored in LB broth at 37° C. in the presence and absence of DB4-162 for 20 hours. A concentration gradient of DB4-162 from 500 to 0 μM was used to screen all 7 strains of bacteria and the dose-response curves were fit to a […] to calculate the IC50 of DB4-162 in each strain. These IC50 values are an approximation of how effectively DB4-162 inhibits the growth of each bacterial strain in vitro.
(§7) IC50 values for ampicillin were calculated via broth microdilution in LB broth only. Values are listed as the mean followed by the 95% confidence interval about the mean. Mean and confidence intervals were calculated from a variable slope, nonlinear regression fit to the dose-response OD600 data. […]

The next assay concerns −Bla K-12 E. coli. Kind of assay: microbe, parasite or virus in culture. The assay is classed as cell-based, Escherichia coli. The conditions noted are these: for IC50: Escherichia coli, −Bla K-12 E. coli, read-out: IC50.
From the text: as §1, §2, §5, §6, §7

The next assay has as its system UTI89 E. coli. Briefly: Broth microdilution growth inhibition (OD600). The format is cell-based, Escherichia coli. The note with it: for IC50: Escherichia coli, UTI89 E. coli.
From the text: as §1, §2, §5, §6, §7

Assay [4] relates to Klebsiella pneumonia (Klebs). Briefly: Broth microdilution growth inhibition (OD600). The format is cell-based. The conditions noted are these: for IC50: Klebsiella pneumoniae.
From the text: as §1, §2, §5, §6, §7

Assay [5] concerns Methicillin-Resistant Staphylococcus aureus (MRSA). Kind of assay: microbe, parasite or virus in culture. The assay is classed as cell-based. The conditions noted are these: for IC50: Staphylococcus aureus.
From the text: as §1, §2, §5, §6, §7

The next assay concerns ESBL E. coli. Kind of assay: microbe, parasite or virus in culture. The assay is classed as cell-based, Escherichia coli. The conditions noted are these: Escherichia coli, ESBL E. coli; LB broth.
From the text: as §1, §2, §5, §6, §7

Another assay relates to pCOM E. coli. Kind of assay: microbe, parasite or virus in culture. The format is cell-based, Escherichia coli. The note with it: Escherichia coli, pCOM E. coli.
From the text: as §1, §2, §5, §6, §7

A short description of assay [6]: Calcein fluorescence assay for Cu competition. The format is physicochemical. The conditions noted are these: 2 μM calcein + 2.4 μM CuCl2, pH 7.4 PBS; 20 μM (10 equivalents) compound alone; 1 h. Here is the method:
FIG. 11: To solutions of 2 μM calcein in pH 7.4 PBS was added 2.4 μM CuCl2 and the samples were fully equilibrated at room temperature for 2 hours. Next, 20 μM TAT, 20 μM DB4-162, 0.1 units/mL β-lactamase were added and the fluorescence at 500 nm was recorded after one hour.
A calcein fluorescence assay for metal competition was utilized in order to evaluate the relative metal-binding affinity of DB4-51 compared to PT. The fluorescence intensity of the probe calcein is quenched by more than 90% upon binding Cu^2+. […] However, when incubated with 10 equivalents of DB4-51 and 0.1 units/mL Type III β-lactamase from Enterobacter cloacae, there is an 85% return in calcein fluorescence, which correlates well with the 90% return observed for PT itself at the same concentration.
FIG. 4: Relative Cu binding assay with DB4-51 and PT against calcein. Solutions of 2 μM calcein and 2.4 μM CuCl2 in pH 7.4 PBS were equilibrated at room temperature for 2 hours prior to addition of 20 μM PT, 20 μM DB4-51, and/or 0.1 units/mL β-lactamase (Bla).
The calcein assay was utilized in order to assess the relative copper chelating ability of the prochelator and TAT. The fluorescence emission of calcein is quenched by more than 90% in the presence of 1.2 equivalents of CuCl2 (FIG. 11). […] The addition of 0.1 units/mL β-lactamase alone has no effect on the quenched fluorescence signal of the Cu-calcein solution. […] However, when incubated with 10 equivalents of DB4-162 and 0.1 units/mL β-lactamase there is a 90% return in calcein fluorescence. […] While it is unclear why 10 equivalents of TAT are insufficient to out-compete calcein for copper, it may be related to the propensity of TAT to form other species in aqueous media.

Like-named read-outs stand apart in the source and are kept apart here.

As for `CO/N=C(\C(=O)N[C@@H]1C(=O)N2C(C(=O)O)=C(CSc3nc(=O)c(=O)[nH]n3C)CS[C@H]12)c1csc(N)n1` [Ceftriaxone], the IC50 in [1] (Klebs Isolate 1) amounted to 0.4 µM; in assay [1] (Klebs Isolate 2) it was 0.7 µM; in assay [1] (Klebs Isolate 3) it was 2 µM; in [1] (Klebs Isolate 4), 1 µM; in assay [1] (Klebs Isolate 5), 0.1 µM; in [1] (Klebs Isolate 6) it was 0.3 µM. Besides, the IC50 is 0.3 µM in assay [1] (Klebs Isolate 7); 0.1 µM in assay [1] (Klebs Isolate 8); 73 µM in assay [1] (Klebs Isolate 9); 0.03 µM in [1] (Klebs Isolate 10); 0.01 µM in assay [1] (Klebs Isolate 11); 0.1 µM in assay [1] (Klebs Isolate 12). The IC50 in assay [1] (Klebs Isolate 13) is 1 µM.

Consider `CC1=C(C(=O)O)N2C(=O)[C@@H](NC(=O)[C@H](N)c3ccccc3)[C@H]2SC1` [Cephalexin], for which the IC50 in assay [2] worked out at 26 µM; in [3], 33 µM.

Consider `[Cl][Cu][Cl]` [CuCl2], for which the increase of growth is given as 5-20% in the assay with +Bla K-12 E. coli (K-12 E. coli (+Bla), 10 μM supplemental CuCl2) and 5-20% in the assay with −Bla K-12 E. coli (K-12 E. coli (−Bla), 10 μM supplemental CuCl2). In addition, the reduction of growth entry in the assay on UTI89 E. coli (UTI89, concentrations up to 500 μM) was “less than 20%”; in assay [4] (concentrations up to 500 μM), “less than 20%”; in assay [5] (concentrations up to 500 μM), “less than 20%”.

On to `Cc1csc(=S)n1O` [TAT, 3-hydroxy-4-methyl-2(3H)-thiazolethione], for which the IC50 was found to be 38 µM in the assay on +Bla K-12 E. coli (LB + 10 μM CuCl2); 70 µM in the assay with +Bla K-12 E. coli (LB + 500 μM BCS); 36 µM in the assay with +Bla K-12 E. coli (LB broth); 41 µM in the assay with ESBL E. coli; 7 µM in the assay on pCOM E. coli (LB + 10 μM CuCl2); 28 µM with pCOM E. coli (LB + 500 μM BCS). Besides, the IC50 with pCOM E. coli (LB broth) turned out to be 6 µM; with −Bla K-12 E. coli (LB + 10 μM CuCl2), 36 µM; in the assay with −Bla K-12 E. coli (LB + 500 μM BCS), 70 µM; with −Bla K-12 E. coli (LB broth) it was 23 µM; with UTI89 E. coli (LB + 10 μM CuCl2), 9 µM; in the assay with UTI89 E. coli (LB + 500 μM BCS) it was 38 µM. Also, the IC50 was 6 µM with UTI89 E. coli (LB broth); 26 µM in [4] (LB + 10 μM CuCl2); 51 µM in assay [4] (LB + 500 μM BCS); 14 µM in assay [4] (LB broth); 10 µM in assay [5] (LB + 10 μM CuCl2); 29 µM in assay [5] (LB + 500 μM BCS). In [5] (LB broth), this molecule registered an IC50 of 23 µM. Further, the “return in calcein fluorescence” value in [6] is on record as 30%.

The IC50 is the concentration that inhibits the measured activity by half.

Values taken from patent US10533018B2, “Antimicrobial prochelators to target drug-resistant bacteria and methods of making and using the same” (Duke University, priority 2015, dated 2020).
